Test results as given in US6511453B2, “Device for controlled anaesthesia, analgesia and/or sedation” (priority 1997, dated 2003).

Experiments:
[1] = Loading of emulsions with xenon (xenon uptake, stability); format: physicochemical; details: 10% by weight fatty emulsion saturated with xenon
Experimental: The loading capacity of the abovementioned perfluorocarbon preparation is considerable. Xenon loads of e.g. 1 to 10 ml/ml have been achieved by the simplest means. For example, these preparations can be loaded with inert gas simply by having the gas passed through them.
Thus, even by the simplest means, xenon can be dissolved or dispersed in concentrations of 0.2 to 10 ml or more per ml of fatty emulsion (concentrations relate to standard conditions, i.e. 20° C. and normal pressure). The xenon concentration depends on a large number of factors, especially the concentration of the fat. As a rule the preparations will be “loaded” with xenon up to the saturation limit. However, it is also possible for very small concentrations to be present, provided, for example, that a pharmacological activity can still be observed on intravenous administration. In the case of a 10% fatty emulsion, it is easily possible to reach xenon concentrations of 0.3 to 2 ml of xenon per ml of fatty emulsion. It is of course also possible to reach higher values, e.g. 3, 4, 5, 6 or 7 ml of xenon per ml of fatty emulsion. These fatty emulsions are sufficiently stable, at least in gas-tight containers, for the xenon not to be released as a gas over conventional storage periods. […]

patient = experiment: Intravenous infusion of xenon-containing emulsion in a patient; details: in vivo
Experimental: To achieve a subanaesthetic action, the xenon load in the medicinal preparation need only be about 0.2 to 0.3 ml of xenon per ml of emulsion. This means that an analgesic and/or sedative action is assured for preparations with a xenon content of at least 0.2 ml/ml emulsion. An anti-inflammatory action is already observed at 0.1 ml/ml emulsion. […] When working with a highly laden perfluorocarbon emulsion containing 2 to 4 ml of xenon per ml of emulsion, for example, 20 ml of this emulsion are infused over 30 sec, for example, in order to induce anaesthesia. An infusion rate of at least 7.5 ml/min is sufficient to maintain the anaesthesia. A total of 470 ml of emulsion would thus be used for a 1-hour operation. With a xenon content of 3 ml of xenon per ml of emulsion, this corresponds to a xenon volume of 1410 ml, i.e. a fraction of the xenon consumed in inhalation anaesthesia (based on a body weight of 85 kg, this would be a consumption of 16.6 ml per kg in one hour).

## [Xe] [xenon, Xenon]
[1]
  Xenon content at saturation: about 0.3 ml of xenon per ml of emulsion
patient
  Xenon content at which an anti-inflammatory action is observed: 0.1 ml/ml emulsion
  Xenon content that assures an analgesic and/or sedative action: at least 0.2 ml/ml emulsion
